The values that follow come from patent US12152018B2, “Compounds and compositions for treating conditions associated with STING activity” (IFM Due, Inc., priority 2021, dated 2024).

This assay deals with hSTING (Homo sapiens, UniProt Q86WV6). As to the kind of experiment: STING reporter assay in THP1-Dual KO-IFNAR2 cells (2′3′cGAMP stimulation, luciferase reporter). The format is cell-based. The conditions noted are these: 15 μM 2′3′cGAMP, 24 h, luciferase reporter activity. The method, then: STING pathway activation by the compounds described herein was measured using THP1-Dual™ cells (KO-IFNAR2).
Sequence of hSTING (Q86WV6 whole entry R71H/G230A/H232R/R293Q, form open): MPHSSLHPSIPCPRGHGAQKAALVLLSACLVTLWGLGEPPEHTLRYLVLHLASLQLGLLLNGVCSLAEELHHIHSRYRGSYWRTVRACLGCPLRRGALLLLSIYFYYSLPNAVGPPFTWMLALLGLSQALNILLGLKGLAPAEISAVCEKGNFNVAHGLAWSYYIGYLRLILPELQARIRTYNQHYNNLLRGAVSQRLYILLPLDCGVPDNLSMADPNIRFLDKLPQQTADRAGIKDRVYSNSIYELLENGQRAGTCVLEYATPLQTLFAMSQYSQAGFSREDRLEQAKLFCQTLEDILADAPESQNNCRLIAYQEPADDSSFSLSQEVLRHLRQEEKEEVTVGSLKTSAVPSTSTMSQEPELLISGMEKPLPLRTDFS
THP1-Dual™ KO-IFNAR2 Cells (obtained from invivogen) were maintained in RPMI, 10% FCS, 5 ml P/S, 2 mM L-glut, 10 mM Hepes, and 1 mM sodium pyruvate. Compounds were spotted in empty 384 well tissue culture plates (Greiner 781182) by Echo for a final concentration of 0.0017-100 μM. Cells were plated into the TC plates at 40 μL per well, 2×10E6 cells/mL. For activation with STING ligand, 2′3′cGAMP (MW 718.38, obtained from Invivogen), was prepared in Optimem media.
The following solutions were prepared for each 1×384 plate: • Solution A: 2 mL Optimem with one of the following stimuli: • 60 μL of 10 mM 2′3′cGAMP→150 μM stock • Solution B: 2 mL Optimem with 60 μL Lipofectamine 2000→Incubate 5 min at RT
2 mL of solution A and 2 ml Solution B was mixed and incubated for 20 min at room temperature (RT). 20 μL of transfection solution (A+B) was added on top of the plated cells, with a final 2′3′cGAMP concentration of 15 μM. The plates were then centrifuged immediately at 340 g for 1 minute, after which they were incubated at 37° C., 5% CO2, >98% humidity for 24 h. Luciferase reporter activity was then measured. EC50 values were calculated by using standard methods known in the art.
Luciferase reporter assay: 10 μL of supernatant from the assay was transferred to white 384-plate with flat bottom and squared wells. One pouch of QUANTI-Luc™ Plus was dissolved in 25 mL of water. 100 μL of QLC Stabilizer per 25 mL of QUANTI-Luc™ Plus solution was added. 50 μL of QUANTI-Luc™ Plus/QLC solution per well was then added. Luminescence was measured on a Platereader (e.g., Spectramax I3X (Molecular Devices GF3637001)).
Luciferase reporter activity was then measured. EC50 values were calculated by using standard methods known in the art.
(In a reporter assay the amount or activity of a reporter protein is the signal.)
Take `CC(=O)N1CCC(NC(=O)Nc2c[nH]c3ccc(-c4cnn(-c5ccc(C(F)(F)F)cc5)c4)cc23)C1` (centres unmarked) [Compound 101, 1-(1-acetylpyrrolidin-3-yl)-3-(5-(1-(4-(trifluoromethyl)phenyl)-1H-pyrazol-4-yl)-1H-indol-3-yl)urea]: the EC50 lay within 1000 to 5000 nM.

On to `CC(C)(O)CNC(=O)Nc1c[nH]c2ccc(-c3cnn(-c4ccc(C(F)(F)F)cc4)c3)cc12` [Compound 102, 1-(2-hydroxy-2-methylpropyl)-3-(5-(1-(4-(trifluoromethyl)phenyl)-1H-pyrazol-4-yl)-1H-indol-3-yl)urea], for which the EC50 lay within 200 to 1000 nM.

On to `O=C(NCC1CC1)Nc1c[nH]c2ccc(-c3cnn(Cc4ccc(C(F)(F)F)cc4)c3)cc12` [Compound 103, 1-(cyclopropylmethyl)-3-(5-(1-(4-(trifluoromethyl)benzyl)-1H-pyrazol-4-yl)-1H-indol-3-yl)urea], for which the EC50 is 200 to 1000 nM.

Consider `O=C(NCC(F)(F)F)Nc1c[nH]c2ccc(-c3cnn(-c4ccc(C(F)(F)F)cc4)c3)cc12` [Compound 104, 1-(2,2,2-trifluoroethyl)-3-(5-(1-(4-(trifluoromethyl)phenyl)-1H-pyrazol-4-yl)-1H-indol-3-yl)urea], for which the EC50 was 200 to 1000 nM.

In turn, `CNC(=O)Nc1c[nH]c2ccc(-c3cnn(Cc4ccc(C(F)(F)F)cc4)c3)cc12` [Compound 105, 1-methyl-3-(5-(1-(4-(trifluoromethyl)benzyl)-1H-pyrazol-4-yl)-1H-indol-3-yl)urea] came in with an EC50 of 200 to 1000 nM.

As to `O=C(NCC1CC1)Nc1c[nH]c2ccc(-c3cnn(-c4ccc(C(F)(F)F)cn4)c3)cc12` [Compound 106, 1-(cyclopropylmethyl)-3-(5-(1-(5-(trifluoromethyl)pyridin-2-yl)-1H-pyrazol-4-yl)-1H-indol-3-yl)urea], the EC50 lay in the range of 200 to 1000 nM.

As to `O=C(NCC(F)(F)F)Nc1c[nH]c2ccc(-c3cnn(-c4ccc(C(F)(F)F)cn4)c3)cc12` [Compound 107, 1-(2,2,2-trifluoroethyl)-3-(5-(1-(5-(trifluoromethyl)pyridin-2-yl)-1H-pyrazol-4-yl)-1H-indol-3-yl)urea], the EC50 was in the range of 200 to 1000 nM.

In turn, `CCc1ccc(-n2cc(-c3ccc4[nH]cc(NC(=O)N5CCN(C(C)=O)CC5)c4c3)cn2)cc1` [Compound 108, 4-acetyl-N-{5-[1-(4-ethylphenyl)-1H-pyrazol-4-yl]-1H-indol-3-yl}piperazine-1-carboxamide] gave an EC50 of 1000 to 5000 nM.

As for `O=C(NCC1CC1)Nc1c[nH]c2ccc(-c3cnn(-c4ccc(C(F)(F)F)cc4)c3)cc12` [Compound 109, 1-(cyclopropylmethyl)-3-(5-(1-(4-(trifluoromethyl)phenyl)-1H-pyrazol-4-yl)-1H-indol-3-yl)urea], the EC50 is 200 to 1000 nM.

`CCc1ccc(-n2cc(-c3ccc4[nH]cc(NC(=O)NCCOC)c4c3)cn2)cc1` [Compound 110, 1-(5-(1-(4-ethylphenyl)-1H-pyrazol-4-yl)-1H-indol-3-yl)-3-(2-methoxyethyl) urea]: the EC50 lay within 200 to 1000 nM.

The compound `CCc1ccc(-n2cc(-c3ccc4[nH]cc(NC(=O)NCC5CCCC5)c4c3)cn2)cc1` [Compound 111, 1-(cyclopentylmethyl)-3-{5-[1-(4-ethylphenyl)-1H-pyrazol-4-yl]-1H-indol-3-yl}urea] registered an EC50 of 200 to 1000 nM.

For `CCc1ccc(-n2cc(-c3ccc4[nH]cc(NC(=O)N5CCCC5)c4c3)cn2)cc1` [Compound 112, N-(5-(1-(4-ethylphenyl)-1H-pyrazol-4-yl)-1H-indol-3-yl)pyrrolidine-1-carboxamide], the EC50 is 200 to 1000 nM.

With `CNC(=O)Nc1c[nH]c2ccc(-c3cnn(-c4cccc(Cl)c4)c3)cc12` [Compound 113, 1-{5-[1-(3-chlorophenyl)-1H-pyrazol-4-yl]-1H-indol-3-yl}-3-methylurea], the EC50 is 200 to 1000 nM.

For `CCc1ccc(-n2cc(-c3ccc4[nH]cc(NC(=O)NCCC(F)(F)F)c4c3)cn2)cc1` [Compound 114, 1-(5-(1-(4-ethylphenyl)-1H-pyrazol-4-yl)-1H-indol-3-yl)-3-(3,3,3-trifluoropropyl)urea], the EC50 is 40 to 200 nM.

For `CNC(=O)Nc1c[nH]c2ccc(-c3cnn(-c4ccccc4Cl)c3)cc12` [Compound 115, 1-{5-[1-(2-chlorophenyl)-1H-pyrazol-4-yl]-1H-indol-3-yl}-3-methylurea], the EC50 lay in the range of 1000 to 5000 nM.

As for `CNC(=O)Nc1c[nH]c2ccc(-c3cnn(-c4cccc(C#N)c4)c3)cc12` [Compound 116, 1-{5-[1-(3-cyanophenyl)-1H-pyrazol-4-yl]-1H-indol-3-yl}-3-methylurea], the EC50 lay within 5000 to 100000 nM.

Regarding `CNC(=O)Nc1c[nH]c2ccc(-c3ccnc(N4CCCCC4)c3)cc12` [Compound 117, 3-methyl-1-{5-[2-(piperidin-1-yl)pyridin-4-yl]-1H-indol-3-yl}urea], the EC50 is 5000 to 100000 nM.

`CNC(=O)Nc1c[nH]c2ccc(-c3cnn(-c4ccc(C(F)(F)F)cc4)c3)cc12` [Compound 118, 1-methyl-3-(5-(1-(4-(trifluoromethyl)phenyl)-1H-pyrazol-4-yl)-1H-indol-3-yl)urea] displayed a half-maximal effective concentration (EC50) of 200 to 1000 nM.

In turn, `CCc1ccc(-n2cc(-c3ccc4[nH]cc(NC(=O)N(C)C)c4c3)cn2)cc1` [Compound 119, 3-(5-(1-(4-ethylphenyl)-1H-pyrazol-4-yl)-1H-indol-3-yl)-1,1-dimethylurea] yielded an EC50 of 200 to 1000 nM.

The compound `CCc1ccc(-n2cc(-c3ccc4[nH]cc(NC(=O)NC5CCCC5)c4c3)cn2)cc1` [Compound 120, 1-cyclopentyl-3-(5-(1-(4-ethylphenyl)-1H-pyrazol-4-yl)-1H-indol-3-yl)urea] came in with an EC50 of 200 to 1000 nM.

For `CNC(=O)Nc1c[nH]c2ccc(-c3ccc(C4(C#N)CC4)cc3)cc12` [Compound 121, 1-{5-[4-(1-cyanocyclopropyl)phenyl]-1H-indol-3-yl}-3-methylurea], the EC50 was 5000 to 100000 nM.

`CNC(=O)Nc1c[nH]c2ccc(-c3cccc(C4CC4)c3)cc12` [Compound 122, 1-[5-(3-cyclopropylphenyl)-1H-indol-3-yl]-3-methylurea] registered an EC50 of 1000 to 5000 nM.

With `CNC(=O)Nc1c[nH]c2ccc(-c3cnn(C4CCCC4)c3)cc12` [Compound 123, 1-[5-(1-cyclopentyl-1H-pyrazol-4-yl)-1H-indol-3-yl]-3-methylurea], the EC50 lay within 5000 to 100000 nM.

Turning to `CCc1ccc(-n2cc(-c3ccc4[nH]cc(NC(=O)NC5CCOC5)c4c3)cn2)cc1` (centres unmarked) [Compound 124, 1-(5-(1-(4-ethylphenyl)-1H-pyrazol-4-yl)-1H-indol-3-yl)-3-(tetrahydrofuran-3-yl)urea], the EC50 lay in the range of 200 to 1000 nM.

Regarding `CCc1ccc(-n2cc(-c3ccc4[nH]cc(NC(=O)N[C@H]5C[C@H](OC)C5)c4c3)cn2)cc1` [Compound 125, 1-(5-(1-(4-ethylphenyl)-1H-pyrazol-4-yl)-1H-indol-3-yl)-3-((1r,3r)-3-methoxycyclobutyl)urea], the EC50 lay in the range of 200 to 1000 nM.

As to `CCc1ccc(-n2cc(-c3ccc4[nH]cc(NC(=O)NC5CCC5)c4c3)cn2)cc1` [Compound 126, 1-cyclobutyl-3-(5-(1-(4-ethylphenyl)-1H-pyrazol-4-yl)-1H-indol-3-yl)urea], the concentration giving a half-maximal response (EC50) lay in the range of 200 to 1000 nM.

For the compound `CCc1ccc(-n2cc(-c3ccc4[nH]cc(NC(=O)NCC(F)F)c4c3)cn2)cc1` [Compound 127, 1-(2,2-difluoroethyl)-3-(5-(1-(4-ethylphenyl)-1H-pyrazol-4-yl)-1H-indol-3-yl)urea], the EC50 lay in the range of 200 to 1000 nM.

`CCc1ccc(-n2cc(-c3ccc4[nH]cc(NC(=O)NCC5CC5)c4c3)cn2)cc1` [Compound 128, 1-(cyclopropylmethyl)-3-(5-(1-(4-ethylphenyl)-1H-pyrazol-4-yl)-1H-indol-3-yl)urea] had an EC50 of 200 to 1000 nM.

In turn, `CCc1ccc(-n2cc(-c3ccc4[nH]cc(NC(=O)NCC(F)(F)F)c4c3)cn2)cc1` [Compound 129, 1-{5-(1-(4-ethylphenyl)-1H-pyrazol-4-yl]-1H-indol-3-yl}-3-(2,2,2-trifluoroethyl)urea] registered an EC50 of 40 to 200 nM.

`CCc1ccc(-n2cc(-c3ccc4[nH]cc(NC(=O)NC(C)C)c4c3)cn2)cc1` [Compound 130, 1-(5-(1-(4-ethylphenyl)-1H-pyrazol-4-yl)-1H-indol-3-yl)-3-isopropylurea]: the EC50 fell in the range of 200 to 1000 nM.

Take `CNC(=O)Nc1c[nH]c2ccc(-c3cnn(-c4ccccc4)c3)cc12` [Compound 131, 3-methyl-1-[5-(1-phenyl-1H-pyrazol-4-yl)-1H-indol-3-yl]urea]: the EC50 was in the range of 1000 to 5000 nM.

The compound `CCc1ccc(-n2cc(-c3ccc4[nH]cc(NC(=O)NC)c4c3)cn2)cc1` [Compound 132, 1-(5-(1-(4-ethylphenyl)-1H-pyrazol-4-yl)-1H-indol-3-yl)-3-methylurea] came in with a half-maximal effective concentration (EC50) of 200 to 1000 nM.

Usually EC50 stands for the concentration needed to bring the measured effect to its halfway point. A low value points to higher potency in that assay.
